Test results: US9458194B2, “Compounds useful in the treatment and/or care of the skin and their cosmetic or pharmaceutical compositions” (Lubrizol Advanced Materials, Inc., priority 2013, dated 2016)
Non-standard residues stand in square brackets, D forms with d. *: point of attachment. Palmitoyl = CCCCCCCCCCCCCCCC(=O)*; Orn = NCCC[C@H](N)C(=O)O; Dap = NC[C@H](N)C(=O)O; Dbu = Diaminobutyryl; NHHex = CCCCCCN*

Experiments:
[1] = test system: human fibulin-5 gene promoter; experiment: Luminescence assay of human fibulin-5 gene promoter activation (Firefly luciferase); type: cell-based; conditions: 16-24 hours
Experimental: (§1) The effect of the compounds of the invention on the activity of the fibulin-5 and LOXL1 promoters was studied and compared to the levels of basal expression of the untreated cells (negative control) and with the effect of Interleukin-1β (IL-1β) in the same conditions.
(§2) Cells from an epithelial cell line doubly transfected with fibulin-5 and LOXL1 human promoters in which the luciferase gene is under the regulatory control of said promoters (4×10^4 cells/well) were seeded in a white plate and in a 96-well transparent plate, both treated with polylysine, and were incubated in Dulbecco's Modified Eagle Medium (DMEM-Glutamax™), with 10% of FBS, 1% Penicillin-Streptomycin (P/S), 1 mg/ml of Geneticin® (G418) and […] at 37° C. in at atmosphere with 5% CO2. After the incubation, the cells were incubated for 6 hours at 37° C. in at atmosphere with 5% CO2 with DMEM without serum. Then, this medium was removed and the cells were treated with different compounds at 0.1 mg/ml, 0.5 mg/ml, 1 mg/ml or 2 mg/mL in DMEM/1% FBS for 16-24 hours. As a positive control to activate the fibulin-5 and LOXL1 promoters 10 ng/ml of IL-1β were used and as a negative control untreated cells were used, just with DMEM/1% FBS. The incubations and treatments were carried out in parallel in the white plate and the transparent plate and in triplicate for each condition. After the treatment, the relative light units per second were determined (RLU/s) in the white plate by means of consecutive quantification of the activities of Firefly luciferase (fibulin-5 promoter) and Renilla luciferase (LOXL1 promoter), and the number of total cells/well in the transparent plate by means of staining with Crystal Violet (CV). To determine the Firefly and Renilla luciferase activities the Dual-Glo Luciferase Assay System kit by Promega was used. The cells were briefly lysed and the Firefly luciferase substrate was added. After incubating for 10 min at 25° C., the RLU/s were quantified by luminescence reader (Lumistar-BMG). Then the Firefly signal was extinguished and the Renilla luciferase substrate was added. After incubating for 5 min at 25° C., the RLU/s were quantified by the same luminescence reader. With regard to the determination of the total number of cells by Crystal Violet, the CV dyes the DNA of the cells and the quantity of dye taken by the cells can be measured in an absorbency reader at 630 nm (Multiskan Ascent). The color obtained is directly proportional to the total number of cells per well. The cells were briefly incubated with 0.05% CV plus 4% Formalin for 20 minutes and after several washes with Milli-Q water, the cells were left to dry for 1-2 hours and then 0.1 M of HCl was added for its immediate reading. The RLU/s of the luciferases corresponding to each promoter were normalized by the average of the total number of cells per condition. Three independent assays with 3 measurements per assay were carried out for Ac-L-Asp-L-Val-L-Lys-L-Tyr-OH at 0.1 mg/mL and 1 mg/mL. 1 assay with 3 measurements was carried out for the other compounds and concentrations.
(§3) The increase in the activity of the promoters with regard to the levels of expression of the negative control was determined.

[2] = test system: human LOXL1 gene promoter; experiment: Luminescence assay of human LOXL1 gene promoter activation (Renilla luciferase); type: cell-based; conditions: 16-24 hours
Experimental: as §1, §2, §3

Increase in the activity of the human promoter of the FIBULIN 5 gene with regard to the negative control ([1]; 2 mg/mL) [%]	Increase in the activity of the human promoter of the LOXL1 gene with regard to the negative control ([2]; 2 mg/mL) [%]	Substance	other results
–	–	Ac-Asn-L-His-L-Lys(Ac-Asn-L-His)-4-Abz-NH2	Increase in the activity of the human promoter of the FIBULIN 5 gene with regard to the negative control ([1]; 0.5 mg/mL): 53%; Increase in the activity of the human promoter of the LOXL1 gene with regard to the negative control ([2]; 0.5 mg/mL): 47%
–	–	Ac-Gly-L-Gln-L-Lys(Ac-Gly-L-Gln)-4-Abz-NH2	Increase in the activity of the human promoter of the FIBULIN 5 gene with regard to the negative control ([1]; 0.5 mg/mL): 17%; Increase in the activity of the human promoter of the LOXL1 gene with regard to the negative control ([2]; 0.5 mg/mL): 79%
12.25	9.83	Ac-L-Asn-L-Ile-L-Lys-L-Tyr-OH (Ac-NIKY-OH)	–
–	–	Ac-L-Asn-L-Thr-L-Lys(Ac-L-Asn-L-Thr)-4-Abz-NH2	Increase in the activity of the human promoter of the FIBULIN 5 gene with regard to the negative control ([1]; 0.5 mg/mL): 39%; Increase in the activity of the human promoter of the LOXL1 gene with regard to the negative control ([2]; 0.5 mg/mL): 51%
59.33	27.08	Ac-L-Asp-L-Ile-L-Lys-L-Tyr-NH(n-hexadecyl) (Ac-DIKY-{NH(n-hexadecyl)})	–
15.42	14.96	Ac-L-Asp-L-Leu-L-Lys-L-Tyr-OH (Ac-DLKY-OH)	–
14.36	32.85	Ac-L-Asp-L-Met-L-Lys-L-Tyr-OH (Ac-DMKY-OH)	–
17.08	28.10	Ac-L-Asp-L-Val-L-Dbu-L-Tyr-OH (Ac-DV[Dbu]Y-OH)	–
30.26	22.87	Ac-L-Asp-L-Val-L-Lys-L-Tyr-NH2 (Ac-DVKY-NH2)	–
6.05	28.48	Ac-L-Gln-L-Met-L-Lys-L-Tyr-OH (Ac-QMKY-OH)	–
26.39	68.94	Ac-L-Gln-L-Val-L-Dbu-L-Trp-NH2 (Ac-QV[Dbu]W-NH2)	–
38.10	18.08	Ac-L-Gln-L-Val-L-Lys-L-Trp-NH2 (Ac-QVKW-NH2)	–
19.79	22.61	Ac-L-Gln-L-Val-L-Lys-L-Tyr-OH (Ac-QVKY-OH)	–
10.92	22.22	Ac-L-Glu-L-Val-L-Lys-L-Trp-OH (Ac-EVKW-OH)	–
27.45	5.59	Ac-L-Glu-L-Val-L-Lys-L-Tyr-OH (Ac-EVKY-OH)	–
–	–	Ac-L-Lys-L-Cit-L-Lys(Ac-L-Lys-L-Cit)-4-Abz-NH2	Increase in the activity of the human promoter of the FIBULIN 5 gene with regard to the negative control ([1]; 0.5 mg/mL): 21%; Increase in the activity of the human promoter of the LOXL1 gene with regard to the negative control ([2]; 0.5 mg/mL): 22%
9.69	16.67	H-L-Asn-L-Leu-L-Lys-L-Tyr-OH (H-NLKY-OH)	–
41.93	21.82	H-L-Asp-L-Val-L-Lys-L-Tyr-OH (H-DVKY-OH)	–
–	–	Palm-L-Asn-L-Ile-L-Orn-L-Trp-NH(n-hexyl) (Palmitoyl-NI[Orn]W-NHHex; SMILES CCCCCCCCCCCCCCCC(=O)N[C@@H](CC(N)=O)C(=O)N[C@H](C(=O)N[C@@H](CCCN)C(=O)N[C@@H](Cc1c[nH]c2ccccc12)C(=O)NCCCCCC)[C@@H](C)CC)	Increase in the activity of the human promoter of the FIBULIN 5 gene with regard to the negative control ([1]; 1 mg/mL): 43.65%; Increase in the activity of the human promoter of the LOXL1 gene with regard to the negative control ([2]; 1 mg/mL): 18.48%

Substance	Increase in the activity of the human promoter of the FIBULIN 5 gene with regard to the negative control ([1]; 2 mg/mL) [%]	Increase in the activity of the human promoter of the LOXL1 gene with regard to the negative control ([2]; 2 mg/mL) [%]	other results
Ac-L-Asn-L-IIe-L-Dpr-L-Tyr-OH (Ac-NI[Dap]Y-OH; SMILES CC[C@H](C)[C@H](NC(=O)[C@H](CC(N)=O)NC(C)=O)C(=O)N[C@@H](CN)C(=O)N[C@@H](Cc1ccc(O)cc1)C(=O)O)	41.79	8.75	–
Ac-L-Asn-L-Val-L-Dpr-L-Tyr-OH (Ac-NV[Dap]Y-OH; SMILES CC(=O)N[C@@H](CC(N)=O)C(=O)N[C@H](C(=O)N[C@@H](CN)C(=O)N[C@@H](Cc1ccc(O)cc1)C(=O)O)C(C)C)	35.49	3.99	–
Ac-L-Asp-L-Val-L-Lys-L-Tyr-NH(n-hexyl) (Ac-DVKY-NHHex; SMILES CCCCCCNC(=O)[C@H](Cc1ccc(O)cc1)NC(=O)[C@H](CCCCN)NC(=O)[C@@H](NC(=O)[C@H](CC(=O)O)NC(C)=O)C(C)C)	18.11	7.54	–
Ac-L-Asp-L-Val-L-Orn-L-Tyr-OH (Ac-DV[Orn]Y-OH; SMILES CC(=O)N[C@@H](CC(=O)O)C(=O)N[C@H](C(=O)N[C@@H](CCCN)C(=O)N[C@@H](Cc1ccc(O)cc1)C(=O)O)C(C)C)	44.60	28.35	–
H-L-Gln-L-Ile-L-Orn-L-Tyr-OH (H-QI[Orn]Y-OH; SMILES CC[C@H](C)[C@H](NC(=O)[C@@H](N)CCC(N)=O)C(=O)N[C@@H](CCCN)C(=O)N[C@@H](Cc1ccc(O)cc1)C(=O)O)	4.41	47.99	–
H-L-Gln-L-Val-L-Orn-L-Tyr-OH (H-QV[Orn]Y-OH; SMILES CC(C)[C@H](NC(=O)[C@@H](N)CCC(N)=O)C(=O)N[C@@H](CCCN)C(=O)N[C@@H](Cc1ccc(O)cc1)C(=O)O)	7.04	25.84	–
Palm-L-Asp-L-Val-L-Lys-L-Tyr-OH (Palmitoyl-DVKY-OH; SMILES CCCCCCCCCCCCCCCC(=O)N[C@@H](CC(=O)O)C(=O)N[C@H](C(=O)N[C@@H](CCCCN)C(=O)N[C@@H](Cc1ccc(O)cc1)C(=O)O)C(C)C)	32.47	25.17	–
